Here are results for 2 molecules from US8796308B2, “Modulators of cystic fibrosis transmembrane conductance regulator” (Vertex Pharmaceuticals Incorporated, priority 2009, dated 2014).

The target in one data set is Δ508/G551D-HBE (Homo sapiens, UniProt P13569, G551D). Description: Ussing chamber assay, Δ508/G551D-HBE. It counts as cell-based.
The target of the next data set is T1, ΔF508-CFTR in HBE (Homo sapiens, UniProt P13569, DEL508-508).
T1 construct: CF-HBE were isolated from patients homozygous for ΔF508-CFTR; endogenous in cells; host or cells: primary bronchial epithelial cells (HBE) from CF patients homozygous for ΔF508
T1 sequence (P13569 with tags, fused parts or gaps DEL508-508): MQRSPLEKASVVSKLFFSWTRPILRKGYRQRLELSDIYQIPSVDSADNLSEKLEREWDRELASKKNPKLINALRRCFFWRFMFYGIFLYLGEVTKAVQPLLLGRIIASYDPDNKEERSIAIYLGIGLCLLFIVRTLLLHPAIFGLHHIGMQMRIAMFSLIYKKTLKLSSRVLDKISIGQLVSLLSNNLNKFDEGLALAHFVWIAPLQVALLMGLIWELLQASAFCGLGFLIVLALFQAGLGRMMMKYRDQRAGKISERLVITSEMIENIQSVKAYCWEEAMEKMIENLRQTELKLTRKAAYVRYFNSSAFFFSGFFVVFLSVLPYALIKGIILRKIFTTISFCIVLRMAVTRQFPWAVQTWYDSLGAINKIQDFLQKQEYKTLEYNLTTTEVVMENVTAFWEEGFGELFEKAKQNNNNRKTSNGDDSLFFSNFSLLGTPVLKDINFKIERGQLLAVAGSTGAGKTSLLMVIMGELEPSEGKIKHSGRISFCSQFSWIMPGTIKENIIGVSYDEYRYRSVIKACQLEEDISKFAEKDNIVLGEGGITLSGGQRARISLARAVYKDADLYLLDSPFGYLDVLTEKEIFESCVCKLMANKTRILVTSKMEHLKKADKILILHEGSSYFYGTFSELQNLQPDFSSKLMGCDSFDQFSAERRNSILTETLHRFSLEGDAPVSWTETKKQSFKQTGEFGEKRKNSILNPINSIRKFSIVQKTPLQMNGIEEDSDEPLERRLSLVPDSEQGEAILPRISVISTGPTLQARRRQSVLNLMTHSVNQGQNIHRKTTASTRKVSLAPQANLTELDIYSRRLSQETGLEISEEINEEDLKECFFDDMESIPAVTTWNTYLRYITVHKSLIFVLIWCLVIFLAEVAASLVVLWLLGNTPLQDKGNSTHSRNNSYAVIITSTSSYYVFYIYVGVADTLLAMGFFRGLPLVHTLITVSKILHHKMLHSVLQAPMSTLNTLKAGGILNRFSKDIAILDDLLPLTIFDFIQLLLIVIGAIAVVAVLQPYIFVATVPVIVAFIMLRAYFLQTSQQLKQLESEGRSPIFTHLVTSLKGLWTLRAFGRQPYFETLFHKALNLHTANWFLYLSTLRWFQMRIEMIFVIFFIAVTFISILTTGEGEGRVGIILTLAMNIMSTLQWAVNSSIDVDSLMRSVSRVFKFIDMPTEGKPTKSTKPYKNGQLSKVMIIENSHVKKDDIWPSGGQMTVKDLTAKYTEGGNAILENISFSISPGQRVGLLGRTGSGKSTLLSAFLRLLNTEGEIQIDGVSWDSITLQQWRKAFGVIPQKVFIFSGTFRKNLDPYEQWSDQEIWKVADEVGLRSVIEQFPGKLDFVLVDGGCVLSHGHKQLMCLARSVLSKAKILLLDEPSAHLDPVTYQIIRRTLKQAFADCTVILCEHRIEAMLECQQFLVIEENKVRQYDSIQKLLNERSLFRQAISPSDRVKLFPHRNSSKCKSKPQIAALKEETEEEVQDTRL
Description: Ussing chamber assay, Δ508-HBE. It counts as cell-based. To be noted: HBE from patients homozygous for ΔF508-CFTR. On the procedure: Ussing chamber experiments were performed on polarized airway epithelial cells expressing ΔF508-CFTR to further characterize the ΔF508-CFTR modulators identified in the optical assays. Non-CF and CF airway epithelia were isolated from bronchial tissue, cultured as previously described (Galietta, L. J. V., Lantero, S., Gazzolo, A., Sacco, O., Romano, L., Rossi, G. A., & Zegarra-Moran, O. (1998) In Vitro Cell. Dev. Biol. 34, 478-481), and plated onto Costar® Snapwell™ filters that were pre-coated with NIH3T3-conditioned media. After four days the apical media was removed and the cells were grown at an air liquid interface for >14 days prior to use. […] CF-HBE were isolated from patients homozygous for ΔF508-CFTR.
HBE grown on Costar® Snapwell™ cell culture inserts were mounted in an Ussing chamber (Physiologic Instruments, Inc., San Diego, Calif.), and the transepithelial resistance and short-circuit current in the presence of a basolateral to apical Cl^− gradient (ISC) were measured using a voltage-clamp system (Department of Bioengineering, University of Iowa, Iowa). Briefly, HBE were examined under voltage-clamp recording conditions (Vhold=0 mV) at 37° C. […]

Data set [1] in a line: High throughput shake flask (HTSF) solubility at pH 7.4. In kind it is physicochemical. To be noted: aqueous buffer, kinetic from dmso stock; pH 7.4 phosphate buffer with 2% DMSO, shaken overnight. The method, then:
A high throughput shake flask assay was used to determine solubility of compounds in pH 7.4 buffer. To calculate the concentration of compounds in solution, two conditions per compound were run: 300 uM in 100% DMSO and 200 uM in pH 7.4 phosphate buffer with 2% DMSO present. Each sample was left to shake overnight then injected onto HPLC-UV to determine peak area using the following conditions: Phenomenex 00A-4251-B0-30×2.00 mm Luna 3u C18(2) 100A column; 0.8 mL/min flow rate; 20 uL injection volume; HPLC grade water with 0.1% formic acid and HPLC grade acetonitrile with 0.1% formic acid mobile phases; peak area determined at 254 nm. Solubility in uM was calculated using the following equation: conc.=(peak area pH 7.4)/(peak area 300 uM DMSO standard condition)*300 uM concentration of standard condition. Peaks of interest were identified in buffer conditions based on retention time (RT) of the largest area peak in the 300 uM DMSO standard condition.

Data set [2] in a line: HLM/RLM stability, % remaining at 30 min. In kind it is in vitro ADME.
The target of data set [3] is T2, ΔF508-CFTR in NIH 3T3 cells (Homo sapiens, UniProt P13569, DEL508-508).
T2 construct: expressed in transfected cells
T2 sequence (P13569 with tags, fused parts or gaps DEL508-508): as above
Description: Membrane potential optical potentiator assay (FLIPR III). It counts as cell-based. The conditions noted are these: temperature-corrected ΔF508 CFTR NIH 3T3 cells, forskolin. From the text:
The assay utilizes fluorescent voltage sensing dyes to measure changes in membrane potential using a fluorescent plate reader (e.g., FLIPR III, Molecular Devices, Inc.) as a readout for increase in functional ΔF508-CFTR in NIH 3T3 cells. The driving force for the response is the creation of a chloride ion gradient in conjunction with channel activation by a single liquid addition step after the cells have previously been treated with compounds and subsequently loaded with a voltage sensing dye.
To identify potentiators of ΔF508-CFTR, a double-addition HTS assay format was developed. This HTS assay utilizes fluorescent voltage sensing dyes to measure changes in membrane potential on the FLIPR III as a measurement for increase in gating (conductance) of ΔF508 CFTR in temperature-corrected ΔF508 CFTR NIH 3T3 cells. The driving force for the response is a Cl^− ion gradient in conjunction with channel activation with forskolin in a single liquid addition step using a fluorescent plate reader such as FLIPR III after the cells have previously been treated with potentiator compounds (or DMSO vehicle control) and subsequently loaded with a redistribution dye.
Solutions • Bath Solution #1: (in mM) NaCl 160, KCl 4.5, CaCl2 2, MgCl2 1, HEPES 10, pH 7.4 with NaOH. • Chloride-free bath solution: Chloride salts in Bath Solution #1 are substituted with gluconate salts. […]

The target in a further data set is CaV 1.2 (Homo sapiens, UniProt Q13936). Description: CaV 1.2 inhibition.

Molecules are shown by their SMILES. In brackets after ≈: the same amount, converted by molar mass. Where only a bound is given, the exact number is not on record here.

Chain of Δ508/G551D-HBE (P13569 whole entry G551D, stated change not applied): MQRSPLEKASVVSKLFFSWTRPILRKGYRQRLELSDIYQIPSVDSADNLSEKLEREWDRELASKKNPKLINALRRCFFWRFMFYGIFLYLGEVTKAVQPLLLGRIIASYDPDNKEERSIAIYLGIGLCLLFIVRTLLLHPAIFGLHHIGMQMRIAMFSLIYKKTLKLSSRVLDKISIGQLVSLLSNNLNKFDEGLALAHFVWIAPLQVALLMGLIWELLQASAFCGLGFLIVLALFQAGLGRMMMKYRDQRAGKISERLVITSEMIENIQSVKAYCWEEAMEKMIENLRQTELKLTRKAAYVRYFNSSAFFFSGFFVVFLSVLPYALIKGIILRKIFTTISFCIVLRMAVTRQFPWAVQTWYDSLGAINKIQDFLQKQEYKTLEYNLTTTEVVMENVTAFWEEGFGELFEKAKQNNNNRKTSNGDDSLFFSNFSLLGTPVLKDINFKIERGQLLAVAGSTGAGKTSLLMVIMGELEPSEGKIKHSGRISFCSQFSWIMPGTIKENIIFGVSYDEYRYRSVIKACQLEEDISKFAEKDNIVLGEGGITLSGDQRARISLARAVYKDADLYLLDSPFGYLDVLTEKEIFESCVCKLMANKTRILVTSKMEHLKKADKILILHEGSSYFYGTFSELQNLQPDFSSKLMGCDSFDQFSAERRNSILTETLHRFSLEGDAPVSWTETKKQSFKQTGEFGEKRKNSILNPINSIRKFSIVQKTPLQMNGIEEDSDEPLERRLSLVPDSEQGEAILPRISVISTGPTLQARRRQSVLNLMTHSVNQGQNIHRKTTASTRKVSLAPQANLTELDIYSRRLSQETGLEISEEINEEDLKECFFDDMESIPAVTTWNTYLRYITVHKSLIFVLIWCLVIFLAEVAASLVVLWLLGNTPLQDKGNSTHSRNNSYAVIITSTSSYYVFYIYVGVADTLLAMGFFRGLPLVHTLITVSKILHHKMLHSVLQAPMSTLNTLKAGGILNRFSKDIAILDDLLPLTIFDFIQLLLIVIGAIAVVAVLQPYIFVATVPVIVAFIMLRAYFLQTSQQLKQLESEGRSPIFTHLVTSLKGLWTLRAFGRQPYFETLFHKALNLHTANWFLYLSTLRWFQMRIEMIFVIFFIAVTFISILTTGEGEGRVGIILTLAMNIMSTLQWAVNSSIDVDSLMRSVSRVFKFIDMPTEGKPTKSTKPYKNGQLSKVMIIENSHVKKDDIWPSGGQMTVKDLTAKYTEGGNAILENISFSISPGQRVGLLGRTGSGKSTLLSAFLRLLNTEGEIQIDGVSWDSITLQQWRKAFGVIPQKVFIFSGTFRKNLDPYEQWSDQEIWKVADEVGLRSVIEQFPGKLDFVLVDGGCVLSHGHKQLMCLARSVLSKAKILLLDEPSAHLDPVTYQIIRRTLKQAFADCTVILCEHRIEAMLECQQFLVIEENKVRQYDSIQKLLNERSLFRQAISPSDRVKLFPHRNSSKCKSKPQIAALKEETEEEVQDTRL
Chain of Δ508/G551D-HBE (P13569 whole entry G551D, stated change not applied): as above

Take `CC(C)(C)c1cc(C(C)(C)C(=O)O)c(O)cc1NC(=O)c1c[nH]c2ccccc2c1=O` [Compound 28, 2-(5-tert-butyl-2-hydroxy-4-(4-oxo-1,4-dihydroquinoline-3-carboxamido)phenyl)-2-methylpropanoic acid]: the values for the EC50 (on Δ508/G551D-HBE; at ΔF508-CFTR in HBE; in data set [3]) were 2000 to 5000 nM, less than 2000 nM and 2000 to 5000 nM, respectively. In addition, the solubility (in general, the concentration that dissolves in the medium under given conditions) in data set [1] is more than 200 µM. The “HLM/RLM (% remain. @ 30 min)” value in data set [2] is “+++ (“+++” if efficacy was calculated to be greater than 100%)”.

For the molecule `CC(C)(C)c1cc(C(C)(C)CO)c(O)cc1NC(=O)c1c[nH]c2ccccc2c1=O` [Compound 27, N-(2-tert-butyl-5-hydroxy-4-(1-hydroxy-2-methylpropan-2-yl)phenyl)-4-oxo-1,4-dihydroquinoline-3-carboxamide], the EC50 (at Δ508/G551D-HBE; at ΔF508-CFTR in HBE; in data set [3]) was less than 2000 nM throughout. The IC50 (as a rule, the concentration that gives 50% inhibition) against CaV 1.2 is more than 5 µM. This molecule also came in with a solubility in data set [1] of 87 µM (≈ 35.5 µg/mL). For the same molecule, the “HLM/RLM (% remain. @ 30 min)” value in data set [2] is “++ (“++” if efficacy was calculated to be from 100% to 25%)”.
